The term pIC50 denotes −log10 of the IC50, conventionally taken in molar units.

Data on one compound can be found in BindingDB's records for patent US10744117 (The Scripps Research Institute; The University of Toledo, 2020).

For the test, the target named is T1, Peroxisome proliferator-activated receptor gamma (Homo sapiens, UniProt P37231).
T1 sequence (P37231 whole entry): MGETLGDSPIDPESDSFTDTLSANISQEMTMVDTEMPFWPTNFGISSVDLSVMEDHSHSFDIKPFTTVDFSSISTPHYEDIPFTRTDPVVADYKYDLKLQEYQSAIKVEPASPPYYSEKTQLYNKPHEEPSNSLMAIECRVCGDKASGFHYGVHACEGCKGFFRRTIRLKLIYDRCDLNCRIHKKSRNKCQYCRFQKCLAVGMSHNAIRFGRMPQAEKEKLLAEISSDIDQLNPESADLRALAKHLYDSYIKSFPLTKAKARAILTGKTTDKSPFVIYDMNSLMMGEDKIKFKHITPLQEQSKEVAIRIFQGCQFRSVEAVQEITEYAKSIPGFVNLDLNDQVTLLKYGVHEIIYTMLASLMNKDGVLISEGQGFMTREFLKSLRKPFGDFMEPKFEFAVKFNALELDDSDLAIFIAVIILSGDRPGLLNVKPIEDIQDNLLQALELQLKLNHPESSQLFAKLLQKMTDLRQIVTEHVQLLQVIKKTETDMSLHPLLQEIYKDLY

pIC50: −log10 of the molar value.

Consider `Cc1c(C)n(Cc2ccc(-c3ccc(Cl)c(O[C@H](C)C(=O)O)c3)cc2)c2ccc(C(=O)N[C@@H](C)c3ccc(C(C)(C)C)cc3)cc12` [US10744117, Compound IA-58], for which the pIC50 was 4.82.
